Measurements published in patent publication US10696693B2, “Fused imidazole derivatives as TGF-beta inhibitors” (Rigel Pharmaceuticals, Inc., priority 2014, dated 2020).
Where two headings read alike, the source gives them in different places.

How the values were obtained:
GDF8 = assay: AlphaScreen SureFire p-SMAD3 (Ser423/425) assay, GDF8-stimulated cells; type: cell-based; conditions: Mus musculus
In short: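 Lysate (5 μL) went into 384-well shallow plates with 5 μL of Reaction Buffer, Activation Buffer and AlphaScreen Acceptor bead mix. Plates were sealed, kept dark and shaken for 2 hours at room temperature. Donor beads in dilution buffer (2 μL) were added for another 1½ hours, and p-SMAD3 signal was read on a Synergy-4 or Enspire reader.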

TGF-β = assay: AlphaScreen SureFire p-SMAD3 (Ser423/425) assay, TGF-β-stimulated cells; type: cell-based; conditions: Mus musculus
In short: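 The p-SMAD-3 (Ser423/425) SureFire assay measured phosphorylation of endogenous SMAD-3 in cell lysates. Cells were plated overnight in collagen-coated plates, exposed to three-fold serially diluted compounds for about 10 minutes, then stimulated with TGFβ. Lysates (5 μL) received acceptor bead mix for 2 hours, then donor beads for 1½ hours before AlphaScreen reading.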

[1] = MPC-11, p-SMAD3 (Ser423/425) AlphaScreen in cell lysate, MPC11, GDF8 stimulation, read-out: GDF8: inhibition of GDF8 signaling, GDF pSMAD (MPC11)
[2] = p-SMAD3 (Ser423/425) AlphaScreen in cell lysate, MPC-11, TGF-β stimulation, read-out: TGF-β: inhibition of TGF-β signaling, TGF-β pSMAD (MPC-11)

Row | Compound | IC50 (GDF8; [1]) [nM] | IC50 (TGF-β; [2]) [nM] | IC50 (GDF8; MPC-11, read-out: GDF8: inhibition of GDF8 signaling, GDF pSMAD (MPC11), p-SMAD3 (Ser423/425) AlphaScreen in cell lysate, GDF8 stimulation) [nM] | IC50 (TGF-β; MPC-11, read-out: TGF-β: inhibition of TGF-β signaling, TGF-β pSMAD (MPC-11), p-SMAD3 (Ser423/425) AlphaScreen in cell lysate, TGF-β stimulation) [nM]
1 | Fc1ccc(-c2nc3occn3c2-c2ccc3nccnc3c2)cc1 [Compound 130, 6-(4-fluorophenyl)-5-(quinoxalin-6-yl)imidazo[2,1-b]oxazole] | 100 to 1000 | 100 to 1000 | – | –
2 | COCCOc1cnc2ccc(-c3c(-c4cc(F)c(F)cc4F)nc4n3CCC4)cc2n1 [Compound 353, 2-(2-methoxyethoxy)-7-(2-(2,4,5-trifluorophenyl)-6,7-dihydro-5H-pyrrolo[1,2-a]imidazol-3-yl)quinoxaline] | 100 to 1000 | 100 to 1000 | – | –
3 | COCCOc1cnc2ccc(-c3c(-c4cc(F)cc(F)c4F)nc4n3CCCN4)cc2n1 [Compound 167, 2-(2-methoxyethoxy)-7-(2-(2,3,5-trifluorophenyl)-5,6,7,8-tetrahydroimidazo[1,2-a]pyrimidin-3-yl)quinoxaline] | > 1000 | > 1000 | – | –
4 | Cc1cc(F)ccc1-c1nc2n(c1-c1ccc3nccnc3c1)CCC2 [Compound 294, 6-(2-(4-fluoro-2-methylphenyl)-6,7-dihydro-5H-pyrrolo[1,2-a]imidazol-3-yl)quinoxaline] | – | – | > 1000 | > 1000
5 | OCC1Cn2c(nc(-c3cc(F)cc(F)c3F)c2-c2ccc3nccnc3c2)N1 (stereo not shown) [Compound 124, (5-(quinoxalin-6-yl)-6-(2,3,5-trifluorophenyl)-2,3-dihydro-1H-imidazo[1,2-a]imidazol-2-yl)methanol] | 100 to 1000 | 100 to 1000 | – | –
6 | O=C(OCc1ccccc1)N1CCC2Cn3c(nc(-c4ccc(F)cc4)c3-c3ccc4ncnn4c3)C2C1 (stereo not shown) [Compound 88, benzyl 3-([1,2,4]triazolo[1,5-a]pyridin-6-yl)-2-(4-fluorophenyl)-5,5a,6,7,9,9a-hexahydro-8H-imidazo[1′,2′:1,2]pyrrolo[3,4-c]pyridine-8-carboxylate] | > 1000 | > 1000 | – | –
7 | Fc1ccc(-c2nc3occn3c2-c2ccc3ncccc3c2)cc1 [Compound 146, 5-(quinolin-6-yl)-6-(4-fluorophenyl)imidazo[2,1-b]oxazole] | 100 to 1000 | 100 to 1000 | – | –
8 | Fc1ccc(-c2nc3n(c2-c2ccc4nccnc4c2)CCC3)c(F)c1F [Compound 224, 6-(2-(2,3,4-trifluorophenyl)-6,7-dihydro-5H-pyrrolo[1,2-a]imidazol-3-yl)quinoxaline] | 100 to 1000 | > 1000 | – | –
